In US7399607B2, “Fluorescence polarization assays for determining clostridial toxin activity” (priority 2004, dated 2008):

Legend:
BoNT/A [1] = conditions: cited from earlier work
BoNT/A [2] = assay type: biochemical

| Substance | Relative Rate (BoNT/A [1]) | depolarization during proteolysis (BoNT/A [2]) |
| --- | --- | --- |
| SNKTRIDEANQRATK [[1-15]] | 0.03 |  |
| SNKTRIDEANQRATKXL [Peptide M16X] | 1.20 |  |
| SNKTRIDEANQRATKM [[1-16]] | 1.17 |  |
| SNKTRIDEANQRATAML [Peptide K15A] | 0.12 |  |
| SNKTRIDQANQRATKML [Peptide E8Q] | 2.08 |  |
| SNKTRIDEANQRABKML [Peptide T14B] | 1.20 |  |
| SNKTRIDEANQRATKML [[1-17]] | 1.00 |  |
| SNKTRIDEANARATKML [Peptide Q11A] | 0.19 |  |
| GFP-SNAP25(134-206)-His6-C-Alexa Fluor® 594 |  | approximately 20 mP |
| SNKTRIDEANBRATKML [Peptide Q11B] | 0.25 |  |
| SNKTRIDEAAQRATKML [Peptide N10A] | 0.06 |  |
| SNKTRIDEANQRASKML [Peptide T14S] | 0.26 |  |
| SNKTRIDEANQRATKAL [Peptide M16A] | 0.38 |  |
| SNKTRIDEANNRATKML [Peptide Q11N] | 0.66 |  |
| SNKTRIDEANQRBTKML [Peptide A13B] | 0.79 |  |
| SNKTRIDEBNQRATKML [Peptide A9B] | 0.38 |  |
| SNKTRINEANQRATKML [Peptide D7N] | 0.23 |  |
